{
  "source": "patent US6303596A",
  "about": "“Use of taurolidine for treatment of leukemias” (priority 2000, dated 2001)",
  "assay_type_in_all_cases": "cell-based, human",
  "key": {"GM5387": {"tested_on": "GM5387", "experiment": "subcellular-sized events by flow cytometry, GM5387", "settings": "GM5387, after taurolidine treatment", "method": "(§1) Less than 0.1% of ECV304 or GM5387 cells were TUNEL-positive 6 hours after treatment with taurolidine or anisomycin (Table VIII). Therefore, neither of these agents induce rapid DNA fragmentation in these cell types. However, there was approximately a 70% increase in the number of subcellular-sized events recorded by flow cytometry after taurolidine treatment of these cells, indicating some effect of taurolidine on cell integrity. These cell fragments were not stained by propidium iodide, consistent with them being apoptotic bodies."}, "ECV304": {"tested_on": "ECV304", "experiment": "subcellular-sized events by flow cytometry, ECV304", "settings": "ECV304, after taurolidine treatment", "method": "as §1"}, "REH": {"tested_on": "REH", "experiment": "TUNEL / propidium iodide flow cytometry, REH", "method": "In the second method, DNA fragmentation was detected via TUNEL assay according to the manufacturer's instructions. With this methodology, 2×10^6 cells were fixed with 2% paraformaldehyde, permeabilized with 0.1% Triton X-100/0.1% citrate, incubated at 37° C. with terminal deoxynucleotidyl transferase and FITC-dUTP, rinsed and analyzed by flow cytometry. Enhanced FITC signal indicates apoptosis-specific DNA fragmentation. Gavriali, et al, \"Identification of programmed cell death in situ via specific labeling of nuclear DNA fragmentation,\" J Cell Biol 119:493 (1992). Parallel aliquots of unfixed cells were treated with PI and FITC-conjugated anti-CD14 and analyzed by flow cytometry, in order to identify cells with permeable cell membranes (since PI binds to DNA but is excluded from cells with intact plasma membranes) and also to determine the cell-specificity of the apoptotic signal.\nIn another study, TUNEL assays were performed on all cell lines 6 hours after cells were initially exposed to taurolidine (cells were treated for 4 hours, rinsed, and then incubated for 2 more hours before TUNEL assay was performed).\n. Taurolidine and anisomycin induced apoptosis in MM6, HL-60, and Jurkat cells (Table VIII). MM6 and HL-60 cells were similarly effected, with >80% TUNEL-positive cells after 6 hours. Jurkat cells were less sensitive, with approximately 50% of cells induced to undergo apoptosis after taurolidine treatment. After 6 hours, 73% of anisomycin-treated REH cells were apoptotic, with less than 20% of taurolidine-treated REH cells being TUNEL-positive. However, assay of cells 24 hours after\n^a Analysis by flow cytometry after staining cells with propidium\niodide and processing for TUNEL.\nData are percent of total cell-size events, and are expressed as mean ±\nCells were treated for 4 hours with taurolidine (100 μg/ml) or\nanisomycin (1 μg/ml), and then assayed at 6 hours.\nData are percent of total cell-sized events, and are expressed as mean ±\nanisomycin (1 μg/ml), and then assayed at 24 hours."}, "tissue factor (TF)": {"tested_on": "tissue factor (TF)", "experiment": "TF activity (coagulation) assay on LPS-induced PBMC treated in whole blood", "method": "In order to determine if taurolidine would inhibit LPS-induced TF expression in PBMC in their native milieu, i.e., whole blood, a tissue factor activity assay was performed. LPS (10 ng/ml) and taurolidine (100-500 μg/ml) or equal dilutions of the taurolidine vehicle were added to 5 ml aliquots of heparinized blood, and the blood was incubated in 50 ml centrifuige tubes at 37° C., rotating on a horizontal rotator at 120 rpm. After 4 hours, PBMC were purified from the blood using Histopaque as described previously. Cells were lysed by 3 freeze-thaw cycles, and used as a source of TF in coagulation assays. For these assays, 50 μl of lysate (at 2×10^7 cells/ml) was added to 50 μl pooled normal human plasma, incubated for 30 seconds at 37° C., then 50 μl of 25 MM CaCl2 was added and clot formation assayed using a Diagnostica Stago ST4 coagulometer. Protein content of the cell samples was determined by bicinchoninic acid assay (Pierce Chemical Company, Rockford, Ill.), and used to normalize the clotting data. A standard curve was made with descyto TF reconstituted in PS/PC vesicles according to the method of Mimms et al. (Mimms, et al., \"Phospholipid vesicle formation and transmembrane protein incorporation using octyl glucoside,\" Biochemistry 20:833-840 (1981)). One unit of TF was defined as that which caused clot formation at 50 seconds of incubation with CaCl2. The TF activity assays were performed on LPS-induced PBMC after 4 hour treatment in whole blood. A dose-response effect of taurolidine on monocyte TF is illustrated in Table II. […] Thus, higher concentrations of taurolidine were required to inhibit TF when the PBMC were treated with whole blood when compared to PBMC in culture medium. Further, lower concentrations of taurolidine were required to down-regulate TF expression than were needed to induce apoptosis as described below.\n^a Heparinized blood was incubated in the presence of LPS and varying\namounts of taurolidine, then PBMC were purified, and coagulation assays\nperformed on cell lysates. Units of TF per mg protein were calculated as\ndescribed above, and data expressed as percentage of LPS-only (\"control\")\nsamples. Data shown are mean ± S.D. of two experiments."}},
  "data": [
    {"smiles": "O=S1(=O)CCN(CN2CCS(=O)(=O)NC2)CN1", "note": "[taurolidine, 4,4'-methylenebis(perhydro-1,2,4-thiadiazin 1,1-dioxide)]", "values": [
      {"measurement": "increase in the number of subcellular-sized events", "setting": "GM5387", "value": "~70", "unit": "%"},
      {"measurement": "increase in the number of subcellular-sized events", "setting": "ECV304", "value": "~70", "unit": "%"},
      {"measurement": "rate of apoptosis induction versus anisomycin", "setting": "REH", "value": "less rapidly than with anisomycin treatment"},
      {"measurement": "% TUNEL-positive", "setting": "REH; taurolidine 100 μg/ml or anisomycin 1 μg/ml for 4 h, assayed at 24 hours, mean ± SD", "value": "81.4 ± 4.4", "unit": "%"},
      {"measurement": "activity at 100 µg/mL", "setting": "tissue factor (TF); Homo sapiens, PBMC, 100 μg/ml taurolidine, 4 h, mean ± S.D. of two experiments, read-out: coagulation activity of LPS-induced PBMC, % of control", "value": "87.7 ± 6.6", "unit": "%"},
      {"measurement": "inhibition at 100 µg/mL", "setting": "tissue factor (TF); Homo sapiens, PBMC, 100 μg/ml taurolidine, 4 h, read-out: decrease of TF activity", "value": 12, "unit": "%"},
      {"measurement": "activity at 200 µg/mL", "setting": "tissue factor (TF); Homo sapiens, PBMC, 200 μg/ml taurolidine, 4 h, mean ± S.D. of two experiments, read-out: coagulation activity of LPS-induced PBMC, % of control", "value": "41.7 ± 8", "unit": "%"},
      {"measurement": "inhibition at 200 µg/mL", "setting": "tissue factor (TF); Homo sapiens, PBMC, 200 μg/ml taurolidine, 4 h, read-out: decrease of TF activity", "value": "~60", "unit": "%"},
      {"measurement": "activity at 500 µg/mL", "setting": "tissue factor (TF); Homo sapiens, PBMC, 500 μg/ml taurolidine, 4 h, mean ± S.D. of two experiments, read-out: coagulation activity of LPS-induced PBMC, % of control", "value": "26.5 ± 10.6", "unit": "%"},
      {"measurement": "inhibition at 500 µg/mL", "setting": "tissue factor (TF); Homo sapiens, PBMC, 500 μg/ml taurolidine, 4 h, read-out: loss of TF activity", "value": "~75", "unit": "%"},
      {"measurement": "reduction of TF activity of LPS-induced monocytes", "setting": "tissue factor (TF); taurolidine as low as 200 μg/ml", "value": "significant reduction"}
    ]}
  ]
}
